# Assay results published in patent US20250161306A1, “UBIQUITIN-SPECIFIC-PROCESSING PROTEASE 1 (USP1) INHIBITORS FOR THE TREATMENT OF SOLID TUMORS” (KSQ Therapeutics, Inc., priority 2022, published 2025).
# Key:
# [1] = Mouse pharmacokinetic study, single oral dose, plasma by LC-MS/MS; type: in vivo, female NOD/SCID mice; conditions: for AUClast / Cmax / T1/2 / Tmax: 300 mg/kg single oral dose, plasma, 300 mg/kg
# Procedure: Mouse pharmacokinetic (PK) studies were conducted using Crystalline Form A of 6-(4-cyclopropyl-6-methoxypyrimidin-5-yl)-1-(4-(1-isopropyl-4-(trifluoromethyl)-1H-imidazol-2-yl)benzyl)-1H-pyrazolo[3,4-d]pyrimidine, as disclosed herein and Crystalline Form 2 of a gentisic acid co-crystal of 6-(4-cyclopropyl-6-methoxypyrimidin-5-yl)-1-(4-(1-isopropyl-4-(trifluoromethyl)-1H-imidazol-2-yl)benzyl)-1H-pyrazolo[3,4-d]pyrimidine, as disclosed herein.
# The PK studies consisted of single dose oral exposure studies, which were conducted in female NOD/SCID mice (approximately 6 to 8 weeks, and 20-30 g at the time of study) using a compound dose of 300 mg/kg and a dosing volume of 10 mL/kg. The mice were fasted overnight prior to dosing. Animals had free access to food and water post-dosing.
# Blood was sampled serially from the dorsal metatarsal vein at pre-dose, 0.25, 0.5, 1, 2, 4, 8, 24, 48 (crystalline Form 2 only), and 72 hours (crystalline Form 2 only) post PO dosing. Approximately 0.03 mL blood was collected at each time point and centrifuged at 4000 G for 5 minutes at 4° C. to provide plasma. The plasma samples were then stored in a freezer at −75±15° C. prior to LC-MS/MS analysis.
# Concentrations of each compound in the plasma samples were then analyzed using an LC-MS/MS method. WinNonlin (Phoenix™, version 6.1) or other similar software was used for PK calculations. The following PK parameters were calculated, whenever possible from the plasma concentration versus time data: Cmax, Tmax, T1/2, AUCinf, and AUClast. The PK data were described using descriptive statistics such as mean with standard deviation.
# [2] = Distribution in rat brain and plasma after single oral dose; type: in vivo, Sprague Dawley rats; conditions: 100 mg/kg single oral dose; for AUC0-∞: brain
# Procedure: Male and female Sprague Dawley rats were purchased from Beijing Anikeeper Biotech Co, Ltd. Animals were habituated to the environment prior to study initiation. Rats were dosed with single dose of 100 mg/kg crystalline Form 2 via oral gavage. The rats were fasted overnight prior to dosing. Animals had access to food from 2 hours post dose and free access to water throughout the study. Approximately 0.2 mL of blood was sampled via jugular vein at each time point and centrifuged at 4000G for 5 minutes at 4° C. to provide plasma. Samples were then stored in a freezer at −75±15° C. prior to LC-MS/MS analysis. Whole brain was collected after hemoperfusion and snap frozen on dry ice prior to storage at −75±15° C. Prior to LC-MS/MS analysis whole brains were weighed and homogenized with water by tissue weight (g) to water volume (ml) ratio 1:3 before analysis. Actual concentration is the measured value multiplied by the dilution factor. The PK data were described using descriptive statistics such as mean with standard deviation.
# [3] = Distribution in mouse brain and plasma after repeated oral dosing; type: in vivo, female NOD SCID mice; conditions: 100 or 300 mg/kg oral for 28 days
# Procedure: Female NOD SCID mice of an age between 6-8 weeks and a body weight range of 18-22 g were purchased from Beijing Anikeeper Biotech Co, Ltd. Animals were habituated to the environment for at least 7 days prior to study initiation. Mice were dosed with Crystalline Form 2 at either 100 mg/kg or 300 mg/kg dose levels via oral gavage for 28 days. After 24 hours following 27 doses of compound, three mice were euthanized via CO2. After four hours following 28 doses of compound, three mice were euthanized via CO2. At each time point the whole brain was collected. In addition, approximately 0.03 mL of blood was collected at each time point and centrifuged at 4000G for 5 minutes at 4° C. to provide plasma. Samples were then stored in a freezer at −75±15° C. prior to LC-MS/MS analysis. Concentrations of compound in brain homogenates (ng/g) and plasma (ng/ml) were then analyzed using an LC-MS/MS method. The PK data were described using descriptive statistics such as mean with standard deviation.
AUClast ([1]; Mean) [µg·h/mL],Cmax ([1]; Mean) [ng/mL],T1/2 ([1]; Mean) [h],Tmax ([1]; Mean) [h],AUClast ([1]; Mouse 7) [µg·h/mL],Cmax ([1]; Mouse 7) [ng/mL],AUClast ([1]; Mouse 8) [µg·h/mL],Cmax ([1]; Mouse 8) [ng/mL],Tmax ([1]; Mouse 8) [h],AUClast ([1]; Mouse 9) [µg·h/mL],Cmax ([1]; Mouse 9) [ng/mL],T1/2 ([1]; Mouse 9) [h],Tmax ([1]; Mouse 9) [h],drug level in the brain tissue ([2]; male and female rats),AUC0-∞ ([2]; Female rats) [ng·h/g],AUC0-∞ ([2]; Male rats) [ng·h/g],T1/2 ([1]; Mouse 8) [h],mouse oral exposure levels compared to crystalline Form A (freebase) ([1]; about 300 mg/kg),accumulation of the drug in the brain after repeated dosing [3],drug level in the brain tissue [3],Structure (SMILES)
60.663,3697,12.7,5.33,72.653,4450,40.678,2890,4.00,68.658,3750,18.6,4.00,,,,,,,,"COc1ncnc(C2CC2)c1-c1ncc2cnn(Cc3ccc(-c4nc(C(F)(F)F)cn4C(C)C)cc3)c2n1 [Crystalline Form A, 6-(4-cyclopropyl-6-methoxypyrimidin-5-yl)-1-(4-(1-isopropyl-4-(trifluoromethyl)-1H-imidazol-2-yl)benzyl)-1H-pyrazolo[3,4-d]pyrimidine]"
752.45,28900,4.17,10.7,827.348,28800,835.713,28900,12.0,594.288,29000,4.27,12.0,measurable drug level,120933,60596,4.22,higher exposure levels,no apparent accumulation,measurable drug level,"COc1ncnc(C2CC2)c1-c1ncc2cnn(Cc3ccc(-c4nc(C(F)(F)F)cn4C(C)C)cc3)c2n1 [Crystalline Form 2, 6-(4-cyclopropyl-6-methoxypyrimidin-5-yl)-1-(4-(1-isopropyl-4-(trifluoromethyl)-1H-imidazol-2-yl)benzyl)-1H-pyrazolo[3,4-d]pyrimidine]"
